Data: US20130109712A1, “Statins for the Prevention or Treatment of Drug Addictions” (Universite de Poitiers, priority 2010, published 2013)

Columns and labels:
cocaine-seeking behavior = experiment: Cocaine-seeking test (extinction session) after cocaine self-administration and 20-day abstinence; format: in vivo, Sprague-Dawley rats; conditions: rats, simvastatin 1 mg/kg i.p. daily for 20 days of abstinence, 3 h extinction test
[1] = tested on: nicotine-seeking behavior; experiment: Nicotine-seeking test (extinction session) after nicotine self-administration and 20-day abstinence; format: in vivo, Sprague-Dawley rats; conditions: rats, simvastatin 1 mg/kg i.p. daily for 20 days of abstinence; 1 h extinction test; control approx. 100 active nose pokes
Procedure: Thus, the logic of the experiment is the following: • 1) the rats acquire self-administration under similar conditions; • 2) during withdrawal from self-administration, they are separated and receive, once a day for 20 days, an injection of simvastatin (1 mg/kg i.p) or a control solution; • 3) they are tested in a drug-seeking protocol in which their responses are not reinforced by the drug. Adult male (11-12 weeks old) Sprague-Dawley rats (Janvier, France), experimentally naive at the beginning of the study, are placed in the animal house with controlled temperature and degree of humidity, and are kept in a 12-hour light/dark cycle (light active at 7 am). As soon as they arrive, the rats are placed in cages in groups of 3 for one week, before beginning the surgery, consisting of the implantation of a catheter in the jugular vein. After the surgery and during the rest of the experiment, the rats are placed in cages individually. All the experiments are carried out during the “day” phase, in accordance with EC regulations for the use of animals in research (86/609/EEC). For the nicotine, 24 self-administration sessions are carried out using a fixed ratio 1 or 3 (FR1 or FR3) schedule of reinforcement, i.e., during the sessions, respectively one or three nose pokes in the active hole deliver an i.v. injection of nicotine. […]

In the case of `CCC(C)(C)C(=O)O[C@H]1C[C@@H](C)C=C2C=C[C@H](C)[C@H](CC[C@@H]3C[C@@H](O)CC(=O)O3)[C@H]21` [simvastatin], the “reduction in cocaine-seeking behavior vs control” value (cocaine-seeking behavior) was 45%, the “number of active nose pokes (drug-seeking behavior)” value (cocaine-seeking behavior; control approx. 350) was “approximately 190 active nose pokes” and the “reduction in nicotine-seeking behavior vs control” value [1] was “approximately 50%”.
